Active and inactive are the calls of the source. No cut-off for these calls is given here.
Tests used:
PC-12 [1] = assay: Neuroprotective activity against H2O2-induced cytotoxicity in rat PC12 cells assessed as cell viability at 10 uM after 24 hrs by MTT assay relative to control; type: functional; conditions: for viability at 10 µM: PC-12, 24 h, read-out: Activity
RAW264.7 = assay: Antiinflammatory activity in mouse RAW264.7 cells assessed as inhibition of LPS-induced nitric oxide production at 10 uM preincubated for 30 mins followed by LPS addition measured after 20 hrs by Griess assay relative to control; type: functional
PC-12 [2] = assay: Neuroprotective activity against amyloid beta (1 to 42)-induced cytotoxicity in rat PC12 cells assessed as cell viability at 10 uM after 48 hrs by MTT assay (reference value: 55.3 to 64.4%); type: functional; conditions: PC-12, 48 h, read-out: Activity
PC-12 [3] = assay: Neuroprotective activity against amyloid beta (1 to 42)-induced cytotoxicity in rat PC12 cells assessed as cell viability at 30 uM after 48 hrs by MTT assay (reference value: 55.3 to 64.4%); type: functional; conditions: PC-12, 48 h, read-out: Activity
PC-12 [4] = assay: Neuroprotective activity against amyloid beta (1 to 42)-induced cytotoxicity in rat PC12 cells assessed as cell viability at 1 uM after 48 hrs by MTT assay (reference value: 55.3 to 64.4%); type: functional; conditions: PC-12, 48 h, read-out: Activity
PC-12 [5] = assay: Neuroprotective activity against H2O2-induced cytotoxicity in rat PC12 cells assessed as cell viability at 1 mM after 24 hrs by MTT assay relative to control; type: functional; conditions: PC-12, 24 h, read-out: Activity
Mus musculus = assay: Antialzheimer activity in cognitive deficit ICR mouse model assessed as reduction in amyloid beta (1 to 42)-induced spatial memory impairment at 6 mg/kg, ig qd administered for 7 consecutive days by Morris water maze test; type: functional, organism-based

SMILES	viability at 10 µM (PC-12 [1]) [%]	other results
CCS(=O)(=O)N1CCN(C(=O)O[C@H]2CC[C@@]3(C)[C@H](CC[C@@H]4[C@@H]3CC[C@]3(C)[C@@H]5[C@H](C[C@@H]43)O[C@]3(CC[C@H](C)CO3)[C@H]5C)C2)CC1	6.8	–
C[C@H]1CC[C@@]2(OC1)O[C@H]1C[C@H]3[C@@H]4CC[C@@H]5C[C@@H](OC(=O)N6CCN(Cc7ccc(C#N)cc7)CC6)CC[C@]5(C)[C@H]4CC[C@]3(C)[C@H]1[C@@H]2C	26.4	inhibition at 10 µM (RAW264.7): 21.6%
C[C@H]1CC[C@@]2(OC1)O[C@H]1C[C@H]3[C@@H]4CC[C@@H]5C[C@@H](OC(=O)N6CCN(Cc7ccc(N(C)C)cc7)CC6)CC[C@]5(C)[C@H]4CC[C@]3(C)[C@H]1[C@@H]2C	22	inhibition at 10 µM (RAW264.7): 5.6%
C[C@H]1CC[C@@]2(OC1)O[C@H]1C[C@H]3[C@@H]4CC[C@@H]5C[C@@H](O)CC[C@]5(C)[C@H]4CC[C@]3(C)[C@H]1[C@@H]2C [SARSASAPOGENIN]	3.3	viability at 10 µM (PC-12 [2]): 79.2%; viability at 30 µM (PC-12 [3]): 58.9%
C[C@H]1CC[C@@]2(OC1)O[C@H]1C[C@H]3[C@@H]4CC[C@@H]5C[C@@H](OC(=O)N6CCN(Cc7ccccc7O)CC6)CC[C@]5(C)[C@H]4CC[C@]3(C)[C@H]1[C@@H]2C	36.6	inhibition at 10 µM (RAW264.7): 15.2%; viability at 10 µM (PC-12 [2]): 95.3%; viability at 1 µM (PC-12 [4]): 59.3%
C[C@H]1CC[C@@]2(OC1)O[C@H]1C[C@H]3[C@@H]4CC[C@@H]5C[C@@H](OC(=O)N6CCN(Cc7ccc(O)cc7)CC6)CC[C@]5(C)[C@H]4CC[C@]3(C)[C@H]1[C@@H]2C	5.8	–
C[C@H]1CC[C@@]2(OC1)O[C@H]1C[C@H]3[C@@H]4CC[C@@H]5C[C@@H](OC(=O)N6CCN(S(=O)(=O)c7ccc(F)cc7)CC6)CC[C@]5(C)[C@H]4CC[C@]3(C)[C@H]1[C@@H]2C	8.5	–
C[C@H]1CC[C@@]2(OC1)O[C@H]1C[C@H]3[C@@H]4CC[C@@H]5C[C@@H](OC(=O)N6CCN(Cc7ccc(F)cc7)CC6)CC[C@]5(C)[C@H]4CC[C@]3(C)[C@H]1[C@@H]2C	7.2	–
Cc1ccc(S(=O)(=O)N2CCN(C(=O)O[C@H]3CC[C@@]4(C)[C@H](CC[C@@H]5[C@@H]4CC[C@]4(C)[C@@H]6[C@H](C[C@@H]54)O[C@]4(CC[C@H](C)CO4)[C@H]6C)C3)CC2)cc1	29.5	inhibition at 10 µM (RAW264.7): 4.8%
C[C@H]1CC[C@@]2(OC1)O[C@H]1C[C@H]3[C@@H]4CC[C@@H]5C[C@@H](OC(=O)N6CCN(C(=O)c7ccc(Cl)cc7)CC6)CC[C@]5(C)[C@H]4CC[C@]3(C)[C@H]1[C@@H]2C	20.2	inhibition (RAW264.7): inactive
C[C@H]1CC[C@@]2(OC1)O[C@H]1C[C@H]3[C@@H]4CC[C@@H]5C[C@@H](OC(=O)N6CCN(C(=O)c7ccc(N)cc7)CC6)CC[C@]5(C)[C@H]4CC[C@]3(C)[C@H]1[C@@H]2C	–	Activity (PC-12 [1]): inactive
C[C@H]1CC[C@@]2(OC1)O[C@H]1C[C@H]3[C@@H]4CC[C@@H]5C[C@@H](OC(=O)N6CCN(C(=O)c7ccccc7)CC6)CC[C@]5(C)[C@H]4CC[C@]3(C)[C@H]1[C@@H]2C	17.6	–
C[C@H]1CC[C@@]2(OC1)O[C@H]1C[C@H]3[C@@H]4CC[C@@H]5C[C@@H](OC(=O)N6CCN(S(=O)(=O)c7ccccc7)CC6)CC[C@]5(C)[C@H]4CC[C@]3(C)[C@H]1[C@@H]2C	20.8	inhibition (RAW264.7): inactive
COc1ccc(CN2CCN(C(=O)O[C@H]3CC[C@@]4(C)[C@H](CC[C@@H]5[C@@H]4CC[C@]4(C)[C@@H]6[C@H](C[C@@H]54)O[C@]4(CC[C@H](C)CO4)[C@H]6C)C3)CC2)cc1	33.1	inhibition at 10 µM (RAW264.7): 1.3%
C[C@H]1CC[C@@]2(OC1)O[C@H]1C[C@H]3[C@@H]4CC[C@@H]5C[C@@H](OC(=O)N6CCNCC6)CC[C@]5(C)[C@H]4CC[C@]3(C)[C@H]1[C@@H]2C	3.4	–
Cc1ccc(CN2CCN(C(=O)O[C@H]3CC[C@@]4(C)[C@H](CC[C@@H]5[C@@H]4CC[C@]4(C)[C@@H]6[C@H](C[C@@H]54)O[C@]4(CC[C@H](C)CO4)[C@H]6C)C3)CC2)cc1	19.2	–
CC(=O)N[C@@H](CS)C(=O)O [ACETYLCYSTEINE]	–	viability at 1000 µM (PC-12 [5]): 35.3%
COc1cc(CN2CCN(C(=O)O[C@H]3CC[C@@]4(C)[C@H](CC[C@@H]5[C@@H]4CC[C@]4(C)[C@@H]6[C@H](C[C@@H]54)O[C@]4(CC[C@H](C)CO4)[C@H]6C)C3)CC2)ccc1O	43.9	inhibition at 10 µM (RAW264.7): 24.4%; viability at 10 µM (PC-12 [2]): 91.3%; viability at 1 µM (PC-12 [4]): 55.8%; Activity (Mus musculus): Active
CCCN1CCN(C(=O)O[C@H]2CC[C@@]3(C)[C@H](CC[C@@H]4[C@@H]3CC[C@]3(C)[C@@H]5[C@H](C[C@@H]43)O[C@]3(CC[C@H](C)CO3)[C@H]5C)C2)CC1	18.9	–
C[C@H]1CC[C@@]2(OC1)O[C@H]1C[C@H]3[C@@H]4CC[C@@H]5C[C@@H](OC(=O)N6CCN(Cc7ccccc7)CC6)CC[C@]5(C)[C@H]4CC[C@]3(C)[C@H]1[C@@H]2C	18.7	–
COc1ccc(C(=O)N2CCN(C(=O)O[C@H]3CC[C@@]4(C)[C@H](CC[C@@H]5[C@@H]4CC[C@]4(C)[C@@H]6[C@H](C[C@@H]54)O[C@]4(CC[C@H](C)CO4)[C@H]6C)C3)CC2)cc1	17.7	–
